The results in this text go back to patent US20100298377A1, “NOVEL SUBSTITUTED INDAZOLES, THE PREPARATION THEREOF AND USE OF SAME IN THERAPEUTICS” (SANOFI-AVENTIS, priority 2007, published 2010).

One assay concerns the target AKT1 (Homo sapiens, UniProt P31749, S473D). Put plainly: Determination of the IC50 for AKT1 (HTRF). The format is biochemical. The following applies: AKT1 without PH domain, activated by PDK1. The essentials:
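HTRF assay of AKT1 (S473D) kinase activity on a biotinylated peptide substrate, with 100 μM ATP and 10 μM peptide in the initiating solution.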
(In TR-FRET formats the signal depends on donor and acceptor labels being close together.)

Assay [1] has as its system MEF-IGF1 murine fibroblast cells. Put plainly: IGF1-dependent proliferation of MEF-IGF1 cells via incorporation of [14C]-thymidine. The class given is cell-based. As to conditions: [14C]-thymidine incorporation, IGF1 stimulated, 72 hours, read-out: IC50 MEF-IGF. The source says: a. Study of the IGF1-Dependent Proliferation of MEF-IGF1 Murine Fibroblast Cells Measured via Incorporation of [14C]-Thymidine
This test is based on the incorporation of [^14C]-thymidine into the DNA of the cells for the S phase of the cell cycle during cell division. The cell line used in this test is the MEF/3T3 Tet-Off Clone 18 line obtained by stable transfection of the human receptor IGF1R in murine MEF/3T3 Tet-Off fibroblasts. To measure the IGF1-dependent cell proliferation, the cells were deprived of serum and cultured for 3 days in the serum-free culture medium in the presence of the growth factor IGF1 which stimulates the proliferation of MEF-IGF1 cells.
Test of Incorporation of [^14C]-Thymidine into MEF-IGF1 Cells
On day 1, the cells were inoculated with 7500 cells per well in Cytostar 96-well microplates (Amersham (GE) RPNQ0162) in 200 μl of EMEM medium (EMEM, Biowhittaker, #BE12-662F) containing 10% foetal calf serum (FCS, TET-BD Biosciences Tet System Approved FBS US-Sourced, #8630-1) and 1% PSG (Penicillin-Streptomycin-Glutamine (PSG), Gibco #10378-016), and incubated at 37° C., 5% CO2, for 24 hours. On day 2, the cells were washed in the FCS-free EMEM culture medium containing 1% PSG, and incubated in 170 μl of this serum-free culture medium at 37° C., 5% CO2, for 24 hours. On day 3, the cells were incubated with 10 μl of IGF1 (2 μg/ml of final concentration; recombinant human IGF-1, R & D Systems, #291-G1), 10 μl (0.1 μCi) of [^14C]-Thymidine (NEN NEC-568) plus 10 μl of increasing concentrations of the test molecules, diluted in dimethyl sulfoxide (DMSO, Sigma D2650). The molecules were added in a volume of 10 μl of a 20-fold concentrated solution in a final volume of 200 μl, the final percentage of DMSO being 0.1%. The treated cells were incubated at 37° C., 5% CO2, for 72 hours. The incorporation of [^14C]-Thymidine was quantified in cpm units (counts per minute) by counting the radioactivity 72 hours after the start of the treatment, using a Micro-Beta radioactivity counter (Perkin-Elmer). The tests were performed in duplicate.
(§1) i) the mean±s.e.m. of each series of well replicates was calculated;
ii) the background noise is calculated by preparing cell-free, IGF1-free and untreated control wells; this control was performed in 4 replicates. The background noise was removed at each measurement;
iii) the maximum response is given by positive control wells containing cells in the presence of IGF1 but untreated; this control was performed in 4 replicates;
iv) the minimum response is given by negative control wells containing IGF1-free and untreated cells; this control was performed in 4 replicates;
(§2) The IC50 values were calculated by […] with the XLfit software (IDBS, UK) using formula 205.
Background: Incorporation of labelled thymidine or its analogues reports DNA synthesis.

Assay [2] concerns C-433 cells (human Ewing sarcoma cells). Put plainly: Proliferation of C-433 cells, intracellular ATP, CellTiter-Glo test. The class given is cell-based. As to conditions: 96 hours.
Excerpt: (§3) b. Study of the Proliferation of Human Tumoral MIA PaCa-2, C-433, LnCaP and MCF7 Cells via Assay of the Intracellular ATP Using the Celltiter-Glo™ Test
(§4) The kit CellTiter-Glo™ for measuring cell viability via luminescence ([…]) is a homogeneous method for determining the number of viable cells in culture, based on quantification of the ATP present in the cells, and which indicates the presence of metabolically active cells.
(§5) The cell lines used in this test were the following: MIA PaCa-2 cells (human pancreatic carcinoma cells, ATCC, CRL-1420), C-433 cells (human Ewing sarcoma cells, DSMZ, ACC 268), LNCaP clone FGC cells (human prostate carcinoma cells, ATCC, CRL-1740), MCF7 cells (human breast carcinoma cells, ECACC, #86012803). The cells MIAPaCa-2 and LNCaP were cultured in D-MEM culture medium (Invitrogen Gibco, #419656-039) containing 10% foetal calf serum (FCS, Invitrogen Gibco, #10500-064) and 2 mM L-Glutamine (Invitrogen Gibco, #25030-024); the C-433 cells were cultured in MCCoy's 5A culture medium (Invitrogen Gibco, #26600-023)/RPMI 1640 (Invitrogen Gibco, #31870-025) (50/50) containing 10% FCS and 2 mM L-glutamine; the MCF7 cells were cultured in EMEM culture medium (EMEM, Biowhittaker, Lonza, #BE12-662F) containing 10% FCS and 2 mM L-Glutamine.
(§6) Evaluation of the Cell Viability via Luminescence Measurement: Celltiter-Glo™ Test
(§7) On day 1, the cells were inoculated at 1000 (C-433), 2500 (MCF7) and 10000 (LNCaP and MIA PaCa-2) cells per well in black-bottomed 96-well microplates (NUNC fluoronunc, Fisherbioblock 2311K) in 135 μl of whole culture medium and incubated at 37° C., 5% CO2, for 3 to 6 hours. The cells were then incubated with increasing concentrations of molecules diluted in dimethyl sulfoxide (DMSO, Sigma D2650). The molecules were added in a volume of 15 μl of a 10-fold concentrated solution in a final volume of 150 μl, the final percentage of DMSO being 0.1%. The cells were incubated at 37° C., 5% CO2, for 96 hours. After 4 days of treatment with the molecules, the CellTiter-Glo™ was performed by following the manufacturer's instructions (Kit Celltiter-Glo Luminescent, PROMEGA #G7571). Briefly, the cell plates were equilibrated for about 30 minutes at RT and 100 μl per well of Celltiter-Glo reagent were added. The cells were incubated for 1 hour at RT for lysis of the cells and stabilization of the signal. The intracellular ATP was quantified by measuring the luminescence in rlu units (relative luminescence units), 96 hours after initiation of the treatment, using a luminescence counter (Wallac). The tests were performed in six replicates.
as §1
(§8) ii) the maximum response is given by positive control wells containing untreated cells; this control was performed in 12 replicates;
(§9) iii) the minimum response is given by cell-free and untreated negative control wells; this control was performed in 6 replicates;
(§10) iv) using these maximum (100%) and minimum (0%) response values, respectively, the data were normalized to give a percentage relative to the maximum response;
as §2
In general terms: ATP-based viability assays read luminescence as a measure of living cells.

In assay [3] the test system is LNCaP clone FGC cells (human prostate carcinoma cells). Put plainly: Proliferation of LNCaP cells, intracellular ATP, CellTiter-Glo test. As to conditions: 96 hours. The class given is cell-based.
Excerpt: as §3, §4, §5, §6, §7, §1, §8, §9, §10, §2

The test system of assay [4] is MCF7 cells (human breast carcinoma cells). Put plainly: Proliferation of MCF7 cells, intracellular ATP, CellTiter-Glo test. The format is cell-based. As to conditions: 96 hours.
Excerpt: as §3, §4, §5, §6, §7, §1, §8, §9, §10, §2

Assay [5] addresses T1, Human S6K1 (24-421) T412E protein (Homo sapiens, UniProt P23443, T412E).
T1 construct: Human S6K1 (24-421) T412E protein; made in house; host or cells: Sf21 insect cells
Description: Determination of the IC50 for S6K1 (HTRF substrate phosphorylation test). The format is biochemical. The following applies: S6K1 activated by PDK1, ATP 30 μM. As for the experimental part:
Determination of the IC50 for S6K1
The inhibitory potential of the compounds for S6K1 is evaluated in an enzymatic test of phosphorylation of substrate in HTRF (Homogenous Time-Resolved Fluorescence) format. Human S6K1 (24-421) T412E protein is expressed in sf21 cells and purified by chromatography on a nickel chelate column. It is activated by PDK1.
The test comprises two steps, both performed at RT. The phosphorylation reaction takes place during the first step and the revelation step is performed during the second. […] The final concentrations of compounds thus obtained during the incubation period range from 10 μM to 0.17 nM and the concentration of enzyme is 2 nM. After incubation for 20 minutes, the reaction is stopped and the revelation initiated by addition of 30 μl of a mixture of streptavidin XL 665 Xlent, ref. 611SAXLB Cis bio international, and a europium cryptate-coupled anti-phospho-GSK3 antibody, ref. 64CUSKAZ Cis bio international, dissolved in the revelation buffer (HEPES/NaOH 166.7 mM, EDTA 221.7 mM, KF 667.7 mM, BSA 0.167%, pH 7.0). The reaction takes place in a black half-well plate ref. 3694 Costar.
A mixture of the reaction medium after each addition of reagent is obtained by agitation for a few minutes at 700-1000 rpm on a Heidolph Titramax 100 machine. The reading is taken on a TECAN Ultra Evolution machine after at least one night and up to 3 nights at 4° C. The reading settings are as follows: excitation wavelength 320 nm, emission wavelengths 620 and 665 nm, lag time 150 μs, integration time 500 μs.
For each point, the ΔF % is calculated as follows:
R(Ratio)=counts665 nm/counts620 nm
The IC50 values are calculated by means of the XLfit4 205 equation.

Assay [6] relates to MIA PaCa-2 cells (human pancreatic carcinoma cells). Put plainly: Proliferation of MIA PaCa-2 cells, intracellular ATP, CellTiter-Glo test. The format is cell-based. The following applies: 96 hours.
Excerpt: as §3, §4, §5, §6, §7, §1, §8, §9, §10, §2

Like-named read-outs stand apart in the source and are kept apart here.

AKT1, sequence (P31749 118-480 S473D limits assumed): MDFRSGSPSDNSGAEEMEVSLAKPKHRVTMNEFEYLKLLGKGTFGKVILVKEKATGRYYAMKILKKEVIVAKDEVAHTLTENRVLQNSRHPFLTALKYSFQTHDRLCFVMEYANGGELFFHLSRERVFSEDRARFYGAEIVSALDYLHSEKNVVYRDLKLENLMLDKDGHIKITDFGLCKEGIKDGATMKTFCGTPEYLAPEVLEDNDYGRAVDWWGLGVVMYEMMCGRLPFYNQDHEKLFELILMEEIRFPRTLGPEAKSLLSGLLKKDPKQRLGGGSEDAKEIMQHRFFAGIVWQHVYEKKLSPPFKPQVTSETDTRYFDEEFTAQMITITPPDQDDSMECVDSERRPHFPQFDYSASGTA
T1 sequence (P23443 24-421 T412E): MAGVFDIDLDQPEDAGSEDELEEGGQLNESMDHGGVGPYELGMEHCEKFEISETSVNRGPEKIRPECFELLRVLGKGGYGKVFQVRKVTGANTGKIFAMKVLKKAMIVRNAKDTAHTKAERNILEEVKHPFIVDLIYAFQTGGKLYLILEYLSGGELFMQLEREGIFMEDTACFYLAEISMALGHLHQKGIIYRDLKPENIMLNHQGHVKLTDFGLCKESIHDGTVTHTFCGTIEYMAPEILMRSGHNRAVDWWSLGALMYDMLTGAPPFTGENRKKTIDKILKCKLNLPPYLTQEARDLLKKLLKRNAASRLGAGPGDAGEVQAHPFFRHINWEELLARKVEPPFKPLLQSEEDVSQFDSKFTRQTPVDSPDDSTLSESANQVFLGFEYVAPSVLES

A word on the IC50: it is the midpoint of a concentration-inhibition curve. Regarding “(7-Fluoro-1H-indazol-5-yl)-(S)-(3,4-dichlorophenyl)-(S)-piperid-2-ylmethyl carbamate [Ex 48]”, the IC50 is less than 100 nM at AKT1; 295 nM in assay [1]; 505 nM in assay [2]; 1350 nM in assay [3]; 1500 nM in assay [4].
For the compound `CN1CCCCC1C(NC(=O)Nc1ccc2[nH]nc(-c3nc4ccccc4[nH]3)c2c1)c1ccccc1` [Ex 17, 1-[3-(1H-Benzimidazol-2-yl)-1H-indazol-5-yl]-3-[(1-methylpiperid-2-yl)(phenyl)methyl]urea((S,2S),(R,2R))], the IC50 at AKT1 is less than 100 nM; in assay [1] (Mus musculus, Fibroblast) it was 2230 nM; in assay [3] (Homo sapiens, LNCaP-Clone-FGC), 670 nM.
As for `O=C(Nc1ccc2[nH]ncc2c1)N[C@H](c1ccc(Cl)c(Cl)c1)[C@H]1CCCCN1` [Ex 6, 1-{(R)-(3,4-Dichlorophenyl)[(2R)-piperid-2-yl]methyl}-3-(1H-indazol-5-yl)urea], the results for the IC50 (against AKT1; in assay [5]; in assay [6]) were less than 100 nM, 100 to 500 nM and 2900 nM, respectively.
`O=C(Nc1ccc2[nH]ncc2c1)N[C@@H](c1cc(Cl)cc(Cl)c1)[C@@H]1CCCCN1` [Ex 7, 1-{(S)-(3,5-Dichlorophenyl)[(2S)-piperid-2-yl]methyl}-3-(1H-indazol-5-yl)urea]: the IC50 on AKT1 is less than 100 nM; in assay [1] (Mus musculus, Fibroblast), 280 nM; in assay [6], 9320 nM; in assay [3] (Homo sapiens, LNCaP-Clone-FGC) it was 5000 nM.
Take `CN1CCCCC1C(NC(=O)Nc1ccc2[nH]nc(C#Cc3ccccc3)c2c1)c1ccccc1` [Ex 23, 1-[(1-Methylpiperid-2-yl)(phenyl)methyl]-3-[3-(phenylethynyl)-1H-indazol-5-yl]urea((S,2S),(R,2R))]: the results for the IC50 (on AKT1; in assay [5]; in assay [6]) were less than 100 nM, 500 to 2000 nM and 930 nM, respectively.
